Laboratory results as given in patent US20150182745A1, “IONTOPHORETIC DEVICE FOR DOSAGING OF AN ACTIVE INGREDIENT” (NOVAGENT OY, priority 2012, published 2015).

Columns and labels:
[1] = swine
From the text: The invention is further described more in detail by the following examples. In the examples a device according to FIG. 2 was used. The electrodes are made of a carbon fiber textile, onto which a hydrophobic micro-porous layer of teflon is fitted. As model agent was used tacrine, which is a cationic drug. The chamber section 13a, the electrolyte space, comprised a 0.15 M aqueous solution of sodium sulphate and the chamber section 13b, the space comprising the active agent, comprised a 0.15 M aqueous solution of sodium chloride, which corresponds to a physiological salt solution. […] The membrane 15 was either a synthetic membrane (UC 101T) or swine skin. In the experiments were used Smopex®-ion exchanging fibres, made by Smoptech (Johnson Matthey).

[2] = in vivo; cited from earlier work

In the case of `Nc1c2c(nc3ccccc13)CCCC2` [tacrine], the passive flow [1] is listed as 1.99 μg cm^−2h^−1, the “passive flow (slope)” value [1] is listed as 1.81 μg cm^−2h^−1 and the “clearance CL” value [2] is listed as 150 dm^3h^−1. The therapeutic window [2] was 5-30 μg dm^−3.
